One data set relates to HeLa cells. Description: Percentage of peptide remained in HeLa cell lysate. In kind it is in vitro ADME. The settings on record: 200 μM alone or with 100 nM BTZ, 1 h; cell lysate or culture medium.
Data set [1] is described as follows: Self-assembly: hydrogelation and nanofiber formation. It is filed as physicochemical. Conditions: 500 μM, TEM images.

Take Nap-Phe-Phe-Asn [compound 2]: the “Degradation in HeLa cells compared with 1 (in words)” value with HeLa cells is “degrade slower than 1”. Besides, the “Nanofiber formation (TEM)” value in data set [1] is “can form nanofibers”.

As for Nap-Phe-Phe-Glu [compound 3], in the data set with HeLa cells, the “Degradation in HeLa cells compared with 1 (in words)” value is recorded as “degrade slower than 1”. Moreover, in data set [1], the “Nanofiber formation (TEM)” value is reported as “can form nanofibers”.

Values taken from publication PMC6242746 (Chemistry, an Asian journal, 2018).
